Values quoted from earlier work, collected in PMC6321136, “Combined In Vitro Studies and in Silico Target Fishing for the Evaluation of the Biological Activities of Diphylleia cymosa and Podophyllum hexandrum” (Molecules, 2018).

System: Agonist, Histone H2A.x
Set-up: method as in PubChem Bioassay AID 1224845
Conditions: ref PubChem Bioassay AID 1224845; cited from earlier work

**Q.** For `COc1cc([C@@H]2c3cc4c(cc3[C@H](O)[C@H]3COC(=O)[C@H]23)OCO4)cc(OC)c1OC` [Podophyllotoxin, podophyllotoxin], which “Exper. Activity” value is on record?
**A.** Inactive
